What was measured:
[1] = molecular target: T1, D(3) dopamine receptor (Homo sapiens, UniProt P35462)
Description: Intrinsic activity at human D3 receptor expressed in CHO dhfr- cells assessed as inhibition of forskolin-induced cAMP release

[2] = molecular target: D(3) dopamine receptor (Homo sapiens, UniProt P35462, F345W); test: biochemical
Description: Displacement of [3H]spiperone from human D3 F6.51W mutant receptor expressed in human HEK293 cells

[3] = molecular target: T1, D(3) dopamine receptor; test: biochemical
Description: Displacement of [3H]spiperone from human wild type D3 receptor expressed in human HEK293 cells

[4] = molecular target: T1, D(3) dopamine receptor; remark: listed apart in the source
Description: Intrinsic activity at human D3 receptor expressed in CHO dhfr- cells by [3H]thymidine incorporation assay

[5] = molecular target: D(3) dopamine receptor (Homo sapiens, UniProt P35462, D110E); test: biochemical
Description: Displacement of [3H]spiperone from human D3 D3.32E mutant receptor expressed in human HEK293 cells

[6] = molecular target: T1, D(3) dopamine receptor; test: biochemical; remark: listed apart in the source
Description: Displacement of [3H]spiperone from human D3 receptor expressed in CHO cells

[7] = molecular target: D(1A) dopamine receptor (Sus scrofa, UniProt P50130); test: Displacement of [3H]SCH23390 from D1 receptor in pig striatal membrane; type: cell membranes, Striatum
Chain of D(1A) dopamine receptor (P50130 whole entry): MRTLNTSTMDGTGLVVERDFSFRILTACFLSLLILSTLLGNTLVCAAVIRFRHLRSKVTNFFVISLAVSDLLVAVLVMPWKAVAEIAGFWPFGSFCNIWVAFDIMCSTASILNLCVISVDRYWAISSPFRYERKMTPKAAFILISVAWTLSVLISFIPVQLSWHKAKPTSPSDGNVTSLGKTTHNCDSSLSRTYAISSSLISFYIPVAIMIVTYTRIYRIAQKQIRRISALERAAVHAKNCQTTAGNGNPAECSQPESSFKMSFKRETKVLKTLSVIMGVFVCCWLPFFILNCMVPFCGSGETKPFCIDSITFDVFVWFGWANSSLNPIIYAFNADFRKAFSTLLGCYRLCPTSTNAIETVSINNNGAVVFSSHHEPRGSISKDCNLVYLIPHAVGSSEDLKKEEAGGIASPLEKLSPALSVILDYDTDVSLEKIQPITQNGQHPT

[8] = molecular target: T2, D(2) dopamine receptor (Homo sapiens, UniProt P14416); test: Displacement of [3H]spiperone from human D2short receptor expressed in CHO cells; type: cell-based
T2 sequence (P14416 whole entry): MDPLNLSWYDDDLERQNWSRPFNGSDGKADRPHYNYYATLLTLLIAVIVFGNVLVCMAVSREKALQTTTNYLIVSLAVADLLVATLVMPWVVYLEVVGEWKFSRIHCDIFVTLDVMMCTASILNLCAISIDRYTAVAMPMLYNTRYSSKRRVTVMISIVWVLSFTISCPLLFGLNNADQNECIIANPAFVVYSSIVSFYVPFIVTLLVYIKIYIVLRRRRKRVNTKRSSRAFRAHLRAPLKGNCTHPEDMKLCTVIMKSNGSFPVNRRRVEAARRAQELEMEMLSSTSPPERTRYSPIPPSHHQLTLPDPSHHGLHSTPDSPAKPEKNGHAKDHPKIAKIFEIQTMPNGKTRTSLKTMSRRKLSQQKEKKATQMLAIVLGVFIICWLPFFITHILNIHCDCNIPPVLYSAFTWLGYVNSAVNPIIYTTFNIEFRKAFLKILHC

[9] = molecular target: T3, D(4) dopamine receptor (Homo sapiens, UniProt P21917); test: Displacement of [3H]spiperone from human D4 receptor expressed in CHO cells; type: cell-based
T3 sequence (P21917 whole entry): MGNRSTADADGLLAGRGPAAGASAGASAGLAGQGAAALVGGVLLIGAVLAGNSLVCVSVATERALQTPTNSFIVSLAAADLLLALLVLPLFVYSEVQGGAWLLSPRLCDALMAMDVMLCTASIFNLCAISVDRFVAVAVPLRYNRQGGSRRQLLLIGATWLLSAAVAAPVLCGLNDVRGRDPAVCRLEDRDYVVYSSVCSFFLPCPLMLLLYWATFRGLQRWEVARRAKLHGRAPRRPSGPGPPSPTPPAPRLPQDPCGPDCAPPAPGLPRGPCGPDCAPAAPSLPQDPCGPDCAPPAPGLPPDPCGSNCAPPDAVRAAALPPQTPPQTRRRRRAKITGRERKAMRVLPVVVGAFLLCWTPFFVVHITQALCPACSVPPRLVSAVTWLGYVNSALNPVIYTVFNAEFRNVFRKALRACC

[10] = molecular target: T2, D(2) dopamine receptor; test: Displacement of [3H]spiperone from human D2long receptor expressed in CHO cells; type: cell-based
[11] = Displacement of [3H]prazosin from adrenergic alpha1 receptor in pig cerebral cortex homogenate
[12] = Displacement of [3H]WAY100635 from 5HT1A receptor in pig cerebral cortex homogenate
[13] = Displacement of [3H]ketanserin from 5HT2 receptor in pig cerebral cortex homogenate

T1 sequence (P35462 whole entry): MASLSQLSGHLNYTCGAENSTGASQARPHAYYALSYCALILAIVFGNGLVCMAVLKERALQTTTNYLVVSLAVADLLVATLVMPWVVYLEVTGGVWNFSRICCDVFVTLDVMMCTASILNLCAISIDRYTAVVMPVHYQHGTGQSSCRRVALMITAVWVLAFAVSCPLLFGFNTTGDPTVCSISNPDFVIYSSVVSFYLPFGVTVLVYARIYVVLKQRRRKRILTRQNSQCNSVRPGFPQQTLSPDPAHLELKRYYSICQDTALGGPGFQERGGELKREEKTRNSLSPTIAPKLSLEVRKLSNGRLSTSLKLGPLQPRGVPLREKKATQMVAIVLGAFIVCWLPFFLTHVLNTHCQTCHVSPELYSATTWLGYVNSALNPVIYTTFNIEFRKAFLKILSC
Chain of D(3) dopamine receptor (Homo sapiens, UniProt P35462, D110E) (P35462 as listed by the source D110E): as the sequence (P35462 whole entry) above, with G9S, D110E counted along it
Chain of D(3) dopamine receptor (Homo sapiens, UniProt P35462, F345W) (P35462 as listed by the source F345W): as the sequence (P35462 whole entry) above, with G9S, F345W counted along it

| SMILES | EC50 [1] | Ki [2] | Ki [3] | EC50 [4] | Ki [5] | Ki [6] | Ki [7] | Ki [8] | Ki [9] | Ki [10] | Ki [11] | Ki [12] | Ki [13] |
| --- | --- | --- | --- | --- | --- | --- | --- | --- | --- | --- | --- | --- | --- |
| C#CC1=CCC(N(CCC)CCC)CC1 (configuration not stated) | 7.7 nM | 5700 nM | 190 nM | 4.4 nM | > 10000 nM |  |  |  |  |  |  |  |  |
| CCCNCCCCNC(=O)c1ccc(-c2ccccc2)cc1 |  |  |  |  |  | 11000 nM | 7300 nM | > 100000 nM | 6100 nM | 21000 nM | 2500 nM | 9500 nM | 860 nM |
| CCCN(CCCCNC(=O)c1ccc(-c2ccccc2)cc1)C1CC=C(C#C[Si](C)(C)C)CC1 (configuration not stated) |  |  |  |  |  | 4.4 nM | 3800 nM | 360 nM | 69 nM | 220 nM | 2200 nM | 660 nM | 1400 nM |
| C#CC1=CCC(N(CCC)CCCCn2cc(-c3ccc(-c4ccccc4)cc3)nn2)CC1 (configuration not stated) | 3.1 nM | 33 nM | 2.5 nM | 2.6 nM | 1500 nM | 1.3 nM | 9500 nM | 170 nM | 190 nM | 610 nM | 4400 nM | 2500 nM | 2700 nM |
| CC#CC1=CCC(N(CCC)CCCCn2cc(C)nn2)CC1 (configuration not stated) |  |  |  |  |  | 280 nM | > 100000 nM | 2100 nM | 100 nM | 4100 nM | 8700 nM | 1800 nM | 15000 nM |
| CCCN(CCC)CCCCNC(=O)c1ccc(-c2ccccc2)cc1 |  |  |  |  |  | 950 nM | 6800 nM | 8800 nM | 1400 nM | 9700 nM | 2400 nM | 2800 nM | 790 nM |
| CCCN(CCCCNC(=O)c1ccc(-c2ccccc2)cc1)C1CC=C(C#Cc2ccccc2)CC1 (configuration not stated) |  |  |  |  |  | 300 nM | 13000 nM | 4700 nM | 3100 nM | 5500 nM | 4600 nM | 5800 nM | 8300 nM |
| C#CC1=CCC(N(CCC)CCCCNC(=O)c2ccc(-c3ccccc3)cc2)CC1 (configuration not stated) |  |  |  |  |  |  | 2900 nM |  | 4.3 nM |  | 510 nM | 230 nM | 460 nM |
| CCCN(CCCCNC(=O)c1ccc(-c2ccccc2)cc1)C1CCCCC1 |  |  |  |  |  | 140 nM | 4600 nM | 6300 nM | 670 nM | 4700 nM | 1100 nM | 1200 nM | 890 nM |
| CCCN(CCCCn1cc(-c2ccc(-c3ccccc3)cc2)nn1)C1CC=C(C#C[Si](C)(C)C)CC1 (configuration not stated) |  |  |  |  |  | 13 nM | 5800 nM | 670 nM | 1800 nM | 690 nM | 1900 nM | 6900 nM | 8300 nM |
| CCCN(CCCCn1cc(-c2ccc(-c3ccccc3)cc2)nn1)C1CC=C(C#Cc2ccccc2)CC1 (configuration not stated) |  |  |  |  |  | 150 nM | 1700 nM | 180 nM | 1100 nM | 210 nM | 900 nM | 5900 nM | 5700 nM |
